Assay results reported in PMC12454603 (Archives of Toxicology, 2025).
Several values for one entry are separate records, joined by “and”; a condition that tells them apart may be missing. Equal values may be shown once.

Legend:
[1] = Sulfation of 3-OH-8-MBaP in incubations with rat liver S9; assay type: in vitro ADME; details: rat, rat liver S9, pH 7.4, rat liver S9, PAPS
Procedure: (§1) The conjugation of 3-OH-8-MBaP by sulfation was studied in incubations with rat liver S9 in vitro. The incubation time and S9 protein concentration were optimized to ascertain linearity of the sulfation reaction with respect to time and amount of protein. The 200 µL incubation mixture consisted of (final concentrations) […] Tris buffer (pH 7.4), 0.1 mg/ml rat liver S9, 0.2 mM PAPS and 0–100 µM 3-OH-8-MBaP. No metabolites were detected in control incubations without either rat liver S9 or co-factor PAPS. After 1-min pre-incubation of the incubation mixture without substrate, the reaction was initiated by adding substrate from a 100 times concentrated stock solution in DMSO (final concentration 1% DMSO (v/v)). The incubation mixture was incubated at 37 °C for 70 min after which 100 µL ice-cold acetonitrile was added to the incubation mixture to terminate the reaction. The incubation mixture was subsequently centrifuged at 3717g at 4 °C for 5 min. The supernatant was collected for subsequent UPLC analysis.
(§2) An Acquity UPLC system with a photodiode array (PDA) detector was used to quantify the metabolites formed in the glucuronidation and sulfation incubations. The supernatants of the incubation samples were injected onto an Acquity UPLC BEH® C18 column ([…], 1.7 µm, Waters, Milford, MA). The total running time per sample was 22 min with a flow rate of 0.6 ml/min. The temperature of column and auto sampler was 40 °C and 10 °C, respectively. The injection volume was 3.5 µL and the detection wavelength ranged from 190 to 400 nm. Two eluents were used including A (nanopure with 0.1% (v/v) TFA) and B (acetonitrile with 0.1% (v/v) TFA). The gradient elution started from 90% A and 10% B applied from 0.0 min to 0.5 min, which was changed to 10% A and 90% B from 0.5 to 15.5 min and then kept at 10% A and 90% B from 15.5 min to 18.5 min, and changed back to 90% A and 10% B from 18.5 to 22.0 min. Metabolites were quantified as previously described in our study on microsomal metabolism of BaP and several of its methyl substituted analogs (Wang et al [2022]).
(§3) The concentration of the glucuronidated and sulfated metabolites was further used to calculate the velocity of the enzymatic reaction expressed in nmol/min/mg S9 protein. The curve reflecting the substrate (3-OH-8-MBaP) concentration-dependent velocity of the metabolite formation was fitted by the Michaelis–Menten equation using GraphPad Prism 5 (California, USA). The kinetic constants derived included the Km (µM) and Vmax (nmol/min/mg S9 protein).
(§4) 3-OH-8-MBaP was subsequently modeled to be conjugated by glucuronidation and sulfation in the liver. The kinetic constants for these conjugation reactions were determined in incubation experiments described in Sect. […] The scaling factors from rat liver microsomes and rat liver S9 to the whole liver were 45 mg microsomal protein/g liver and 125 mg S9 protein/g liver, respectively (Houston and Galetin [2008]).

[2] = test system: rat liver S9; assay: as above; assay type: in vitro ADME
Procedure: as §1, §2, §3, §4

[3] = Glucuronidation of 3-OH-8-MBaP in incubations with rat liver S9; assay type: in vitro ADME; details: rat, pooled rat liver S9, pH 7.4, rat liver S9, UDPGA
Procedure: (§5) The conjugation of 3-OH-8-MBaP with glucuronic acid was studied in incubations with rat liver S9 in vitro. The incubation time and S9 protein concentration were optimized to ascertain linearity of glucuronidation with time and the amount of S9 protein. The incubation was performed with a 200 µL mixture in glass vials, and consisted of (final concentrations) […] Tris buffer (pH 7.4), 0.1 mg/ml pooled rat liver S9, 3 mM UDPGA, 5 mM MgCl2, 0.025 mg/ml alamethicin, and 0–100 µM 3-OH-8-MBaP. No metabolites were formed in control incubations without either rat liver S9 or co-factor UDPGA. The final concentration of substrate vehicle (DMSO) in the incubation mixture was 1% (v/v). The incubation mixtures without substrate were pre-incubated at 37 °C for 1 min. The reaction was initiated by adding substrate to the incubation mixtures that were subsequently incubated at 37 °C for 20 min, after which the reaction was terminated by adding 100 µL ice-cold acetonitrile. The incubation mixture was subsequently centrifuged at 3717g at 4 °C for 5 min. The supernatant was collected for ultra-performance liquid chromatography (UPLC) analysis.
as §2, §3, §4

[4] = test system: rat liver S9; assay: as above; assay type: in vitro ADME
Procedure: as §5, §2, §3, §4

[5] = test system: ES-D3 cells; assay: ES-D3 cell cytotoxicity (WST-1 viability) assay of the mEST; assay type: cell-based, mouse; details: 1-day and 5-day cytotoxicity, ES-D3 cells
Procedure: The viability of the ES-D3 cells following 1-day and 5-day exposure to the test compounds was measured with the WST-1 assay. To this end, 100 µL cell suspension was seeded in the inner 60 wells of 96-well plates at a concentration of 2 × 10^5 cells/ml for 1-day exposure and 10^4 cells/ml for 5-day exposure and incubated at 37 °C with 5% CO2 for 24 h. After 24 h, 100 µL exposure medium with 0.25% DMSO and the required concentration of the test compounds, solvent control, and positive control were added to the cells in triplicate. The plates were incubated at 37 °C with 5% CO2 for 1 day or 5 days until measurement. After the exposure period, 20 µL of the cell proliferation reagent WST-1 were added to each well that contained cells and the cells were incubated for 3 h at 37 °C with 5% CO2. The absorbance of each plate was measured at 440 nm and 620 nm with a SpectraMax iD3 (San Jose, USA).
The concentration–response data for the test compounds in the mEST were presented in three curves including curves for 1-day cytotoxicity, 5-day cytotoxicity, and 10-day differentiation assays. The obtained curves were fitted using the inhibition equation log (inhibitor) vs response (three parameters) option using GraphPad Prism software 5.0 (California, USA).

[6] = scaled to whole liver, liver weight 9.1 g
[7] = scaled with 125 mg S9 protein/g liver

**Q.** Which results are given for `Cc1ccc2c(c1)cc1ccc3c(O)ccc4ccc2c1c43` [3-OH-8-MBaP, 3-Hydroxy-8-methyl-benzo[a]pyrene]?
**A.** Km at 70 min [1]: 26 µM; Km ([2]; rat liver S9, PAPS): 26.1 µM; Vmax, sulfation of 3-OH-8-MBaP ([2]; rat liver S9, PAPS): 0.15 nmol/min/mg S9 protein and 0.15^e nmol/min/mg S9 protein; Scaled Vmax, sulfation of 3-OH-8-MBaP [2, 6]: 10 µmol/h/liver; Scaled Vmax, sulfation of 3-OH-8-MBaP [2, 7]: 1.16 µmol/h/g liver; Km at 20 min [3]: 16 µM; Km ([4]; rat liver S9, UDPGA): 15.6 µM; Vmax, glucuronidation of 3-OH-8-MBaP ([4]; rat liver S9, UDPGA): 6.92 nmol/min/mg S9 protein and 6.92^e nmol/min/mg S9 protein; Scaled Vmax, glucuronidation of 3-OH-8-MBaP [4, 6]: 470 µmol/h/liver; Scaled Vmax, glucuronidation of 3-OH-8-MBaP [4, 7]: 51.9 µmol/h/g liver; Cytotoxicity accompanying the inhibition of differentiation [5]: without accompanying cytotoxicity
